Experimental data taken from patent US9624256B2, “Coordination complexes, pharmaceutical solutions comprising coordination complexes, and methods of treating patients” (SYNTHONICS, INC., priority 2004, dated 2017).
Values joined by “and” are separate entries in the source; they are usually repeats but may differ in a detail not shown here. Identical values can stand only once. Like-named read-outs stand apart in the source and are kept apart here.

Columns and labels:
[1] = for pH: Table 2, pH of the solution; for increase in water solubility over SAHA: pH 10
[2] = 23° C., cited from earlier work
[3] = pH 7.4; cited from earlier work
[4] = highly variable; cited from earlier work
[5] = cited from earlier work
[6] = Precipitation test after adjusting aqueous solution to pH 7.0; assay type: physicochemical; conditions: 32 mg based on topiramate in 1 mL H2O, pH adjusted to 7.0 with 1.0 N HCl
[7] = Solubility/pH studies of topiramate-containing coordination complexes (gravimetric); assay type: physicochemical
Protocol: Solubility/pH Studies of Topiramate-Containing Coordination Complexes: Initial screening of drug candidates was based on a qualitative determination of aqueous solubility using gravimetric methods. Briefly, a known quantity of coordination compound (ca. 50 mg) was dissolved in a known amount of water ([…]). The pH of the resulting mixture was measured, and the solution/suspension was filtered and concentrated to afford a minimal solubility value.

With `O=C(CCCCCCC(=O)Nc1ccccc1)N[O-].O=C(CCCCCCC(=O)Nc1ccccc1)N[O-].[Mg+2]` [Compound 1, Mg(saha)2] the “pH of the solution” value [1] was 7.75 and the pH [1] was 7.94.
In the case of `CC1(C)O[C@@H]2[C@@H](CO[C@@]3(COS(N)(=O)=O)OC(C)(C)O[C@@H]23)O1` [topiramate, 2,3:4,5-bis-O-isopropylidene-β-D-fructopyranose sulfamate], the water solubility [2] is listed as “about 9.8 mg/mL and ~0.029 M” and the “log D” value [3] is listed as −0.5.
For `O=C(CCCCCCC(=O)Nc1ccccc1)NO` [SAHA, suberoylanilide hydroxamic acid], the pH [1] is listed as 7.95, the oral bioavailability [4] is listed as “less than 50%” and the water solubility [5] is listed as “about 0.1 mg/mL”.
With Ca(saha)(quinic acid) [Compound 5] the “increase in water solubility over SAHA” value [1] was roughly 19 fold.
With `CC1(C)O[C@@H]2[C@@H](CO[C@@]3(COS([NH-])(=O)=O)OC(C)(C)O[C@@H]23)O1.CC1(C)O[C@@H]2[C@@H](CO[C@@]3(COS([NH-])(=O)=O)OC(C)(C)O[C@@H]23)O1.[Ca+2]` [Calcium Salt of Topiramate] the precipitation on standing [6] was “A precipitate formed immediately”.
In the case of `O=C(CCCCCCC(=O)Nc1ccccc1)N[O-].O=C(CCCCCCC(=O)Nc1ccccc1)N[O-].[Ca+2]` [Compound 2, Ca(saha)2], the “pH of the solution” value [1] is reported as 8.60, the pH [1] is reported as 8.6 and the “pH of solution compared with SAHA” value ([1]; in words) is reported as “slightly higher than the pH of a solution of SAHA itself”.
In the case of `CC1(C)O[C@@H]2[C@@H](CO[C@@]3(COS([NH-])(=O)=O)OC(C)(C)O[C@@H]23)O1.O.O.O.[Na+]` [sodium topiramate trihydrate], the water solubility ([2]; trihydrate) is given as “about 1300 mg/mL and ~3.59 M”.
In the case of `O=C(CCCCCCC(=O)Nc1ccccc1)N[O-].[Na+]` [Na(saha)], the “pH of the solution” value [1] is reported as “around 10”, the pH [1] is reported as 10 and the “pH of the solution” value ([1]; listed as sodium salt of SAHA) is reported as 10. For the same compound, the “increase in water solubility over SAHA” value [1] was roughly 7 fold and the “solution pH required to stay in solution” value ([5]; prior study, Memorial Sloan Kettering Cancer Center) was “above 11”.
In the case of Ca(saha)(tricine) [Compound 4], the “pH of the solution” value [1] is reported as 8.75 and the pH [1] is reported as 8.75.
With `O=C(CCCCCCC(=O)Nc1ccccc1)N[O-].O=C(CCCCCCC(=O)Nc1ccccc1)N[O-].[Ni+2]` [Compound 3, Ni(saha)2] the “pH of the solution” value [1] was 5.86 and the pH [1] was 5.67.
With `CC1(C)O[C@@H]2[C@@H](CO[C@@]3(COS([NH-])(=O)=O)OC(C)(C)O[C@@H]23)O1.CC1(C)O[C@@H]2[C@@H](CO[C@@]3(COS([NH-])(=O)=O)OC(C)(C)O[C@@H]23)O1.[Ca+2]` [Calcium(topiramate)2] the precipitation on standing [6] was “No precipitate was observed upon standing for 2 hours”, the “solubility relative to free topiramate” value ([7]; pH 7.0) was “at least three times the solubility of free topiramate” and the “solubility (minimal value)” value ([7]; pH 7.0, gravimetric) was no less than 34 mg/mL.
